Source: ChEMBL document CHEMBL1201862, “PubChem BioAssay data set” (2004)
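Five concentrations, 48 hours, 96-well plates. GI50 marks 50% less growth.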 Active and inactive are the calls of the source. Rule as the data show it: active = GI50 up to about 1.1 µM and inactive = higher.

Key:
Experiment in all cases: NCI-60 cell line screen, 48 h
MDA-N = tested on: MDA-N
MDA-MB-435 = tested on: MDA-MB-435
UACC-257 = tested on: UACC-257
HOP-62 = tested on: HOP-62
M14 = tested on: M14
HCT-15 = tested on: HCT-15
Malme-3M = tested on: Malme-3M
A549 = tested on: A549
NCI-H522 = tested on: NCI-H522
BT-549 = tested on: BT-549
DU-145 = tested on: DU-145
A498 = tested on: A498
HOP-92 = tested on: HOP-92
786-0 = tested on: 786-0
OVCAR-8 = tested on: OVCAR-8
SK-MEL-2 = tested on: SK-MEL-2
MDA-MB-231 = tested on: MDA-MB-231
SF-539 = tested on: SF-539
SNB-75 = tested on: SNB-75

Structure (SMILES) | GI50 (MDA-N) | GI50 (MDA-MB-435) | GI50 (UACC-257) | GI50 (HOP-62) | GI50 (M14) | GI50 (HCT-15) | GI50 (Malme-3M) | GI50 (A549) | GI50 (NCI-H522) | GI50 (BT-549) | GI50 (DU-145) | GI50 (A498) | GI50 (HOP-92) | GI50 (786-0) | GI50 (OVCAR-8) | GI50 (SK-MEL-2) | GI50 (MDA-MB-231) | GI50 (SF-539) | GI50 (SNB-75)
O=c1c(Nc2ccccc2)cn(CCOc2ccccc2)c(=O)n1CCOc1ccccc1 | > 100 µM (inactive) | > 100 µM (inactive) | 83.2 µM (inactive) | 17.2 µM (inactive) | 70.5 µM (inactive) | > 100 µM | 79.6 µM (inactive) | 91.8 µM (inactive) | 29.1 µM (inactive) | 20.8 µM (inactive) | 53 µM (inactive) | > 100 µM (inactive) | 35.6 µM (inactive) | 28.2 µM (inactive) | – | – | – | – | –
Nc1cccc(/C=C/CN2CCN(CCOC(c3ccccc3)c3ccccc3)CC2)c1 | – | 14.3 µM (inactive) | 15.9 µM (inactive) | 13.8 µM (inactive) | 12.8 µM (inactive) | 12.8 µM | 18.2 µM (inactive) | 15.1 µM (inactive) | 13.9 µM (inactive) | 16.1 µM (inactive) | 13.6 µM (inactive) | 18 µM (inactive) | 12.6 µM (inactive) | 14.8 µM (inactive) | 16 µM (inactive) | 17.7 µM (inactive) | 15 µM (inactive) | 16.7 µM (inactive) | 10.5 µM (inactive)
CSc1nnc(SC)nn1 | 16.1 µM (inactive) | 16.9 µM (inactive) | 16.6 µM (inactive) | 15.3 µM (inactive) | 15.5 µM (inactive) | 19.2 µM | 13 µM (inactive) | 20.9 µM (inactive) | 16.4 µM (inactive) | 16 µM (inactive) | 20.4 µM (inactive) | > 100 µM (inactive) | 3.84 µM (inactive) | 13.8 µM (inactive) | 18.6 µM (inactive) | – | 18.2 µM (inactive) | 18.2 µM (inactive) | 17.4 µM (inactive)
CC1(C)OC2[C@@H](CO[C@@]3([C@H]4OC(C)(C)O[C@@H]4CO)OC(C)(C)O[C@@H]23)O1 (some centres not stated) | > 100 µM (inactive) | > 100 µM (inactive) | – | > 100 µM (inactive) | > 100 µM (inactive) | > 100 µM | > 100 µM (inactive) | > 100 µM (inactive) | > 100 µM (inactive) | > 100 µM (inactive) | > 100 µM (inactive) | – | > 100 µM (inactive) | > 100 µM (inactive) | > 100 µM (inactive) | > 100 µM (inactive) | > 100 µM (inactive) | – | > 100 µM (inactive)
Cn1/c(=N\S(=O)(=O)c2ccccc2)[nH]c2ccccc21 | > 100 µM (inactive) | > 100 µM (inactive) | > 100 µM (inactive) | – | > 100 µM (inactive) | > 100 µM | > 100 µM (inactive) | > 100 µM (inactive) | > 100 µM (inactive) | > 100 µM (inactive) | > 100 µM (inactive) | > 100 µM (inactive) | > 100 µM (inactive) | > 100 µM (inactive) | > 100 µM (inactive) | – | > 100 µM (inactive) | > 100 µM (inactive) | > 100 µM (inactive)
O=C(O)c1ccc(C(O)(c2ccccc2)c2ccccc2)cc1 | > 100 µM (inactive) | > 100 µM (inactive) | > 100 µM (inactive) | > 100 µM (inactive) | > 100 µM (inactive) | > 100 µM | > 100 µM (inactive) | > 100 µM (inactive) | > 100 µM (inactive) | > 100 µM (inactive) | > 100 µM (inactive) | – | – | > 100 µM (inactive) | > 100 µM (inactive) | – | > 100 µM (inactive) | – | –
CC1(CF)SCc2nc3ccccc3n21 (configuration not stated) | > 100 µM (inactive) | > 100 µM (inactive) | > 100 µM (inactive) | > 100 µM (inactive) | > 100 µM (inactive) | > 100 µM | > 100 µM (inactive) | > 100 µM (inactive) | > 100 µM (inactive) | > 100 µM (inactive) | > 100 µM (inactive) | > 100 µM (inactive) | > 100 µM (inactive) | > 100 µM (inactive) | > 100 µM (inactive) | – | > 100 µM (inactive) | > 100 µM (inactive) | > 100 µM (inactive)
Cc1ccc(S[C@@H](C)[C@@](O)(C(N)=O)c2ccccc2)cc1 | 33.8 µM (inactive) | 45.6 µM (inactive) | 13 µM (inactive) | 23.6 µM (inactive) | > 100 µM (inactive) | 84.3 µM | 21 µM (inactive) | 42.1 µM (inactive) | 16.7 µM (inactive) | 30.1 µM (inactive) | 72.9 µM (inactive) | – | 18.7 µM (inactive) | 72.6 µM (inactive) | 38.5 µM (inactive) | 39.4 µM (inactive) | 19.2 µM (inactive) | 25.6 µM (inactive) | > 100 µM (inactive)
c1ccc2c(c1)ncn2C1CCCCO1 (configuration not stated) | > 100 µM (inactive) | > 100 µM (inactive) | > 100 µM (inactive) | > 100 µM (inactive) | > 100 µM (inactive) | > 100 µM | > 100 µM (inactive) | > 100 µM (inactive) | > 100 µM (inactive) | > 100 µM (inactive) | > 100 µM (inactive) | – | > 100 µM (inactive) | > 100 µM (inactive) | > 100 µM (inactive) | > 100 µM (inactive) | > 100 µM (inactive) | > 100 µM (inactive) | > 100 µM (inactive)
O=C1c2cccc3cccc(c23)C2NCCCN12 (configuration not stated) | > 100 µM (inactive) | > 100 µM (inactive) | > 100 µM (inactive) | > 100 µM (inactive) | > 100 µM (inactive) | > 100 µM | > 100 µM (inactive) | > 100 µM (inactive) | 28.8 µM (inactive) | > 100 µM (inactive) | > 100 µM (inactive) | > 100 µM (inactive) | > 100 µM (inactive) | > 100 µM (inactive) | > 100 µM (inactive) | – | > 100 µM (inactive) | – | < 0.01 µM (active)
COc1ccc(Cn2c(=O)c(OC)c(C)c3cc4ccccc4cc32)cc1 | 34.3 µM (inactive) | 28.1 µM (inactive) | 2.99 µM (inactive) | 45.6 µM (inactive) | 41.2 µM (inactive) | 27 µM | 21.1 µM (inactive) | 34.4 µM (inactive) | 21.4 µM (inactive) | 34.3 µM (inactive) | 35.2 µM (inactive) | – | – | 33 µM (inactive) | 27.9 µM (inactive) | 17.2 µM (inactive) | 22.7 µM (inactive) | 32.7 µM (inactive) | 32.1 µM (inactive)
COc1nc(=O)n(C2CC(N=[N+]=[N-])C(CO)O2)cc1C (configuration not stated) | > 100 µM (inactive) | > 100 µM (inactive) | > 100 µM (inactive) | > 100 µM (inactive) | > 100 µM (inactive) | > 100 µM | > 100 µM (inactive) | > 100 µM (inactive) | > 100 µM (inactive) | > 100 µM (inactive) | > 100 µM (inactive) | – | > 100 µM (inactive) | > 100 µM (inactive) | > 100 µM (inactive) | > 100 µM (inactive) | > 100 µM (inactive) | > 100 µM (inactive) | –
Cc1ccc(S(=O)(=O)Nn2c(C)cc3ccc(S(=O)(=O)Nc4ccccc4[N+](=O)[O-])cc3c2=O)cc1 | 29.6 µM (inactive) | > 100 µM (inactive) | > 100 µM (inactive) | 72.3 µM (inactive) | 13.6 µM (inactive) | > 100 µM | > 100 µM (inactive) | 72.8 µM (inactive) | > 100 µM (inactive) | > 100 µM (inactive) | > 100 µM (inactive) | – | 94.6 µM (inactive) | > 100 µM (inactive) | > 100 µM (inactive) | 39.4 µM (inactive) | > 100 µM (inactive) | > 100 µM (inactive) | > 100 µM (inactive)
CCNC(=O)Nc1ccccn1 | > 100 µM (inactive) | > 100 µM (inactive) | > 100 µM (inactive) | > 100 µM (inactive) | > 100 µM (inactive) | – | > 100 µM (inactive) | > 100 µM (inactive) | > 100 µM (inactive) | > 100 µM (inactive) | > 100 µM (inactive) | > 100 µM (inactive) | > 100 µM (inactive) | > 100 µM (inactive) | > 100 µM (inactive) | – | > 100 µM (inactive) | > 100 µM (inactive) | 84.5 µM (inactive)
COC(=O)C12OC3CO[Si](C(C)C)(C(C)C)O[Si](C(C)C)(C(C)C)OC3C1Oc1nc(=O)ccn12 (configuration not stated) | 18 µM (inactive) | 17.1 µM (inactive) | 15.6 µM (inactive) | 18.1 µM (inactive) | 17.8 µM (inactive) | 16.5 µM | 14.8 µM (inactive) | 15.2 µM (inactive) | – | 18.2 µM (inactive) | 18.5 µM (inactive) | 23.7 µM (inactive) | 14.3 µM (inactive) | 17.7 µM (inactive) | 15.5 µM (inactive) | 17.1 µM (inactive) | 15.5 µM (inactive) | 16.4 µM (inactive) | –
COC(=O)c1cc(C(=CCC[C@H]2CC[C@@]3(C)C(CCC4C3CC[C@@]3(C)C4CC[C@@H]3C(C)CCCC(C)C)C2)c2cc(Cl)c(O)c(C(=O)OC)c2)cc(Cl)c1O (some centres not stated) | > 10 µM (inactive) | > 10 µM (inactive) | > 10 µM (inactive) | > 10 µM (inactive) | > 10 µM (inactive) | > 10 µM | > 10 µM (inactive) | > 10 µM (inactive) | > 10 µM (inactive) | > 10 µM (inactive) | > 10 µM (inactive) | – | > 10 µM (inactive) | > 10 µM (inactive) | > 10 µM (inactive) | > 10 µM (inactive) | > 10 µM (inactive) | > 10 µM (inactive) | > 10 µM (inactive)
